The source of these data is ChEMBL document CHEMBL4813975, “Discovery and characterization of a novel glucose-6-phosphate dehydrogenase (G6PD) inhibitor via high-throughput screening” (Bioorg Med Chem Lett, 2021).

Usually pIC50 stands for the IC50 on a negative log10 scale, so that one unit is a factor of ten. As usually defined, the pKi is −log10 of the Ki, conventionally taken in molar units. As usually defined, the pKd is the negative decadic logarithm of the Kd, by convention in mol/L. As usually defined, the pEC50 is the EC50 on a negative log10 scale, so that one unit is a factor of ten.

pEC50, pIC50, pKd, pKi: −log10 of the molar value. Active and inactive are the calls of the source. The rule behind the calls is not given here.

The target of experiment [1] is T1, Glucose-6-phosphate 1-dehydrogenase (Homo sapiens, UniProt P11413). The experiment can be described thus: Inhibition of G6PD (unknown origin) assessed as reduction in 6-phospho-D-glucono-1,5-lactone and NADPH production using glucose-6-phosphate and NADP+ as substrate incubated for 15 mins by UV absorption photometry assay.
Experiment [2] deals with T1, Glucose-6-phosphate 1-dehydrogenase. The experiment can be described thus: Non-competitive inhibition of G6PD (unknown origin) using varying concentrations of G6P and NADP+ as substrate by Michaelis-Menten analysis.
Experiment [3] shares this target. The experiment can be described thus: Non-competitive inhibition of G6PD (unknown origin) using glucose-6-phosphate and varying concentrations of NADP+ as substrate by Michaelis-Menten analysis.
The target is the same in experiment [4]. The experiment can be described thus: Binding affinity to G6PD (unknown origin) assessed as equilibrium dissociation constant by surface plasmon resonance assay.
For experiment [5] the target is unchanged. The experiment can be described thus: Reversible inhibition of G6PD (unknown origin) using glucose-6-phosphate and NADP+ as substrate measured after dilution of 12XIC50 to 0.6XIC50 by dilution based analysis.
The target is the same in experiment [6]. The experiment can be described thus: Competitive inhibition of G6PD (unknown origin) using varying concentrations of G6P and NADP+ as substrate by Michaelis-Menten analysis.
Experiment [7] has the same target. The experiment can be described thus: Competitive inhibition of G6PD (unknown origin) using glucose-6-phosphate and varying concentrations of NADP+ as substrate by Michaelis-Menten analysis.
For experiment [8], the system named is OVCAR-3. The experiment can be described thus: Inhibition of colony formation in human OVCAR-3 cells overexpressing G6PD incubated for 14 days by crystal violet staining based assay. In kind it is functional, cell-based.
The target of experiment [9] is T1, Glucose-6-phosphate 1-dehydrogenase. The experiment can be described thus: Inhibition of G6PD in human OVCAR-3 cells assessed as thermal instability of the enzyme by CETSA analysis. Type of experiment: cell-based.

T1 sequence (P11413 whole entry): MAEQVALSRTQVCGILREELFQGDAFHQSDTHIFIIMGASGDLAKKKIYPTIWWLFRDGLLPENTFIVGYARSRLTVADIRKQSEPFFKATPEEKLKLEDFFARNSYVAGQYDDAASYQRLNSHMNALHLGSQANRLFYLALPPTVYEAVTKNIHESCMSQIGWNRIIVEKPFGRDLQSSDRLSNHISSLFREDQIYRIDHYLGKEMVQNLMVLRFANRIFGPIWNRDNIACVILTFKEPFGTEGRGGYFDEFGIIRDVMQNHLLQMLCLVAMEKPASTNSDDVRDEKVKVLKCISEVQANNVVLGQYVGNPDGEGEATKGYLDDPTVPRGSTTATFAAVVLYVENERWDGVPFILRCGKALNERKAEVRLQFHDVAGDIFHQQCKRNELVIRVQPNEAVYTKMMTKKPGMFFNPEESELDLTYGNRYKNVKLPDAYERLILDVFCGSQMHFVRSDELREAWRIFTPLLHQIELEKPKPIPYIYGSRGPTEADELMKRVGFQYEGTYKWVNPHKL

On to `O=c1c(O)c(-c2ccc(O)c(O)c2)oc2cc(O)cc(O)c12`, for which, in experiment [1], the negative logarithm of the IC50 (pIC50) is 4.51.

For the compound `O=C(/C=C/c1ccc(O)c(O)c1)O[C@@H]1C[C@](O)(C(=O)O)C[C@@H](OC(=O)/C=C/c2ccc(O)c(O)c2)[C@H]1O`, the pIC50 in [1] was 4.42.

Consider `OC[C@H]1O[C@@H](Oc2cc(O)cc(/C=C/c3ccc(O)cc3)c2)[C@H](O)[C@@H](O)[C@@H]1O` [PICEID], for which, in [1], the negative-log IC50 (pIC50) was 4.13.

Consider `C[C@]12CC[C@H](O)CC1=CC[C@@H]1[C@@H]2CC[C@]2(C)C(=O)CC[C@@H]12` [PRASTERONE], for which the pIC50 in experiment [1] was 4.90.

In the case of `COc1cc(O)c2c(c1)oc(=O)c1c3cc(O)c(O)cc3oc21` [WEDELOLACTONE], the pKi in experiment [2] was 5.00; in [3], 5.24; in experiment [6] it was 5.60; in experiment [7], 5.92. Besides, the pIC50 in [1] is 5.29. The pKd in [4] is 5.44. The inhibition entry in experiment [5] and in experiment [9] was “Active” in each case. The negative logarithm of the EC50 (pEC50) in experiment [8] (OVCAR-3, 336 h) was 4.97. Also, in experiment [8] (time 14.0 day), the inhibition entry is “Dose-Dependent Effect”.
